From the NIST ThermoML archive (doi:10.1016/j.fluid.2010.01.026)
Numbers after ± are expanded uncertainties.

Conditions: 293.15 K; 101.33 kPa; Liquid; Vibrating tube method

mass density: 1234.55 ± 8.3 kg/m3
SMILES: CCCCCCCC[n+]1ccn(C)c1.F[P-](F)(F)(F)(F)F [1-octyl-3-methylimidazolium hexafluorophosphate]
